PubChem BioAssay (NCI)
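The compound was tested at five concentrations on cells cultured in 96-well plates, with a 48-hour exposure period. Definition used: TGI = concentration required for complete inhibition of growth.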

How the values were obtained:
Assay in all cases: NCI tumour cell line growth inhibition, 48 h
BT-549 breast = system: BT-549 breast
CAKI-1 renal = system: CAKI-1 renal
COLO 205 colon = system: COLO 205 colon
HOP-92 NSCLC = system: HOP-92 NSCLC
KM12 colon = system: KM12 colon
M14 melanoma = system: M14 melanoma
NCI/ADR-RES ovarian = system: NCI/ADR-RES ovarian
SF-268 CNS = system: SF-268 CNS
SK-MEL-28 melanoma = system: SK-MEL-28 melanoma
SK-MEL-5 melanoma = system: SK-MEL-5 melanoma
SN12C renal = system: SN12C renal
UACC-257 melanoma = system: UACC-257 melanoma

| SMILES | TGI (BT-549 breast) [µM] | TGI (CAKI-1 renal) [µM] | TGI (COLO 205 colon) [µM] | TGI (HOP-92 NSCLC) [µM] | TGI (KM12 colon) [µM] | TGI (M14 melanoma) [µM] | TGI (NCI/ADR-RES ovarian) [µM] | TGI (SF-268 CNS) [µM] | TGI (SK-MEL-28 melanoma) [µM] | TGI (SK-MEL-5 melanoma) [µM] | TGI (SN12C renal) [µM] | TGI (UACC-257 melanoma) [µM] |
| --- | --- | --- | --- | --- | --- | --- | --- | --- | --- | --- | --- | --- |
| C#C[C@]1(O)CC[C@H]2[C@@H]3CCc4cc(OC(=O)c5cccc6cc7ccccc7nc56)ccc4[C@H]3CC[C@@]21C | > 100 | 65.1 | 43.7 | > 100 | 50.6 | > 100 | > 100 | > 100 | > 100 | 29.5 | 54.7 | > 100 |
| O=C(N/N=C\c1ccc2ccccc2c1)Nc1ccc([N+](=O)[O-])cc1 | > 77.3 | > 100 | > 60 | 38.5 | > 100 | > 95.8 | > 70.1 | > 89.9 | > 84.8 | > 70.4 | > 59.8 | > 75 |
| Clc1ccc(C2NN=C3c4ccccc4OCC32)cc1 (stereo unspecified) | 79.3 | > 100 | 12.4 | > 100 | > 37.9 | > 45.1 | 6.14 | > 81 | > 85.6 | 20.4 | 22.1 | 87.4 |
